Experimental data reported in publication PMC5791972 (PLoS ONE, 2018).
“Also recorded” adds a separate entry of the source. Read-outs that look alike come from different tables or passages of the source.

Experiments:
range of ion channels = assay: Ion channel selectivity panel, whole-cell manual patch clamp; assay type: cell-based; conditions: at 1.9 μM
GABA transaminase = target: T1, GABA transaminase (Rattus norvegicus, UniProt P50554); assay: enzyme assay; assay type: biochemical; conditions: 1.0E-06 M
T1 construct: rat brain; from tissue; host or cells: rat brain

[1] = Standard elevated plus maze; conditions: male, C57/BL6, mouse, in vivo, 3 mg/kg
C57/BL6 mice = assay: Standard elevated plus maze; conditions: 3 mg/kg oral, 60 min prior
mTRPC5 = target: T2, mTRPC5 (Mus musculus, UniProt Q9QX29); assay: Whole-cell manual patch clamp; assay type: cell-based; conditions: La3+ (80 μM)
T2 construct: The cDNAs for various full-length ion channels were subcloned into pcDNA5/TO; expressed in transfected cells

Kv1.3 = target: T3, Kv1.3 (Homo sapiens, UniProt P22001); assay: Ion channel selectivity patch clamp; assay type: cell-based; conditions: Voltage (+20 mV)
T3 construct: expressed in transfected cells

β2 (h) = β2 (h) (Homo sapiens, UniProt P07550); assay type: binding; conditions: 1.0E-06 M
CCK2 (CCKB) (h) = CCK2 (CCKB) (h) (Homo sapiens, UniProt P32239); assay type: binding; conditions: 1.0E-06 M
AMPA = assay type: binding, rat; conditions: 1.0E-06 M
H3 (h) = target: T4, H3 (h) (Homo sapiens, UniProt Q9Y5N1); assay type: binding
T4 construct: host or cells: CHO cells

NK1 (h) = target: T5, NK1 (h) (Homo sapiens, UniProt P25103); assay type: binding; conditions: 1.0E-06 M
T5 construct: (endogenous); host or cells: U-373MG cells

PPARγ (h) = target: T6, PPARγ (h) (Homo sapiens, UniProt P37231); assay type: binding
T6 construct: Cerep; host or cells: E. coli
T6 sequence (P37231 1-505): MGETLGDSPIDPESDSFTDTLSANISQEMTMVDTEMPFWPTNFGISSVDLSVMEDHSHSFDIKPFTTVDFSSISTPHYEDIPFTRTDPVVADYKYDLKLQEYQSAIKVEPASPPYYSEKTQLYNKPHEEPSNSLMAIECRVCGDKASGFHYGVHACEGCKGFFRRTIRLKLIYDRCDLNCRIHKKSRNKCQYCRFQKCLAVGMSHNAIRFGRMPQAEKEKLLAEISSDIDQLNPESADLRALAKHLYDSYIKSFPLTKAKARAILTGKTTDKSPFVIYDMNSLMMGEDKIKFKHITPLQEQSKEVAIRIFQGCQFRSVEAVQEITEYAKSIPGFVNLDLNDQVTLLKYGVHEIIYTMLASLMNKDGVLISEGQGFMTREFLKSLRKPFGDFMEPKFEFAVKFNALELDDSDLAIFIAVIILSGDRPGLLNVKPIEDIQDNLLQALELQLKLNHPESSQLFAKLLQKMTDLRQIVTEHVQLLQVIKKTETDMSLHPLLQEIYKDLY

[2] = system: sigma (non-selective) (h); assay type: binding, human; conditions: 1.0E-06 M
TR (TH) = assay type: binding, rat; conditions: 1.0E-06 M
V2 (h) = target: T7, V2 (h) (Homo sapiens, UniProt P30518); assay type: binding; conditions: 1.0E-06 M
T7 construct: host or cells: CHO cells

[3] = target: Ca2+ channel (L, diltiazem site) (benzothiazepines) (Rattus norvegicus, UniProt P22002); assay type: binding
SKCa channel = assay type: binding, rat; conditions: 1.0E-06 M
Cl- channel (GABA-gated) = assay type: binding, rat; conditions: 1.0E-06 M
PDE4D2 (h) = PDE4D2 (h) (Homo sapiens, UniProt Q08499); assay: biochemical; conditions: 1.0E-06 M
Abl kinase (h) = Abl kinase (h) (Homo sapiens, UniProt P00519); assay: biochemical; conditions: 1.0E-06 M
M4 (h) = target: T8, M4 (h) (Homo sapiens, UniProt P08173); assay: biochemical
T8 sequence (P08173 1-479): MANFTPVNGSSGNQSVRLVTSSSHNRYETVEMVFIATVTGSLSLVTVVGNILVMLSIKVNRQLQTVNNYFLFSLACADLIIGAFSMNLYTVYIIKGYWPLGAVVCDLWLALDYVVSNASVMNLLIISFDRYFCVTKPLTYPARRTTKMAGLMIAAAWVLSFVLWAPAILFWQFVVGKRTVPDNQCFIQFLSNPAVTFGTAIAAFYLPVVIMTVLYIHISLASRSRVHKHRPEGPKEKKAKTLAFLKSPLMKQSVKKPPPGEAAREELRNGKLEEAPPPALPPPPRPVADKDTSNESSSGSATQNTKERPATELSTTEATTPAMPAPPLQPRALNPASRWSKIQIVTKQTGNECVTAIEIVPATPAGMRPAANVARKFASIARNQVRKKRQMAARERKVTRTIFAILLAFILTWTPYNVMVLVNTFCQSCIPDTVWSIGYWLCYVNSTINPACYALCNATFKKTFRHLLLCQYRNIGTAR

[4] = 1.0E-06 M, read-out: % Inhibition 2nd

T7 sequence (P30518 whole entry): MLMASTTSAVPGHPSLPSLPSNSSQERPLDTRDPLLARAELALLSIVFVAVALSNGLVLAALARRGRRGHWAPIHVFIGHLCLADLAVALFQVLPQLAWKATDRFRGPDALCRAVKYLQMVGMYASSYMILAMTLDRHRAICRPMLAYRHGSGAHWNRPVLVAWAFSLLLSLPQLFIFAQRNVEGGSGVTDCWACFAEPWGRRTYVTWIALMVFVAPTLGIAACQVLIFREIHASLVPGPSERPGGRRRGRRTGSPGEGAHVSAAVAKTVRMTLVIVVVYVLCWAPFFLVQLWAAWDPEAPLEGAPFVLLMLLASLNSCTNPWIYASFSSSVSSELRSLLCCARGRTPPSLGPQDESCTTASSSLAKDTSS
β2 (h), sequence (P07550 whole entry): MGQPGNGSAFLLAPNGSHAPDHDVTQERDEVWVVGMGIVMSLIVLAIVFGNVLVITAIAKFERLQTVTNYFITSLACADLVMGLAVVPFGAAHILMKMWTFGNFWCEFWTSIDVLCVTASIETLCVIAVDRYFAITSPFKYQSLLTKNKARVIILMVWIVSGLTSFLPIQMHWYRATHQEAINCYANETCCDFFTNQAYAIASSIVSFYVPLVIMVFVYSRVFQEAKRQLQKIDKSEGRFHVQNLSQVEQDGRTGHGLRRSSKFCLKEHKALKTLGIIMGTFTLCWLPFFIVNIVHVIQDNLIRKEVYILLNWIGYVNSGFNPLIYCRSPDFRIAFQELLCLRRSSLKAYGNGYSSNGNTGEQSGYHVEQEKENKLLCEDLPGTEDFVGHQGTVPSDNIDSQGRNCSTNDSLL
CCK2 (CCKB) (h), sequence (P32239 whole entry): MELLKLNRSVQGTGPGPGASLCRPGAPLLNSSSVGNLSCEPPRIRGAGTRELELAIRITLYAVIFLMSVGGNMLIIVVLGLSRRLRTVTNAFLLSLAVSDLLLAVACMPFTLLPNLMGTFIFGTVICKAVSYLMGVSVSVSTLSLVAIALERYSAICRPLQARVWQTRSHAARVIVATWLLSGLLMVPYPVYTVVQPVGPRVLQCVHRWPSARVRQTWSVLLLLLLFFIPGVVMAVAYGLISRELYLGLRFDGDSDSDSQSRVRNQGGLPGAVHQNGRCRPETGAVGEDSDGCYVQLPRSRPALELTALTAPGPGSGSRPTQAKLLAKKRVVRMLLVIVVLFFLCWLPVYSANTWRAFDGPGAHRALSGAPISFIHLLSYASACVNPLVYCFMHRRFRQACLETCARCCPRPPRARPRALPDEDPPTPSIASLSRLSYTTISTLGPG
Abl kinase (h), sequence (P00519 whole entry): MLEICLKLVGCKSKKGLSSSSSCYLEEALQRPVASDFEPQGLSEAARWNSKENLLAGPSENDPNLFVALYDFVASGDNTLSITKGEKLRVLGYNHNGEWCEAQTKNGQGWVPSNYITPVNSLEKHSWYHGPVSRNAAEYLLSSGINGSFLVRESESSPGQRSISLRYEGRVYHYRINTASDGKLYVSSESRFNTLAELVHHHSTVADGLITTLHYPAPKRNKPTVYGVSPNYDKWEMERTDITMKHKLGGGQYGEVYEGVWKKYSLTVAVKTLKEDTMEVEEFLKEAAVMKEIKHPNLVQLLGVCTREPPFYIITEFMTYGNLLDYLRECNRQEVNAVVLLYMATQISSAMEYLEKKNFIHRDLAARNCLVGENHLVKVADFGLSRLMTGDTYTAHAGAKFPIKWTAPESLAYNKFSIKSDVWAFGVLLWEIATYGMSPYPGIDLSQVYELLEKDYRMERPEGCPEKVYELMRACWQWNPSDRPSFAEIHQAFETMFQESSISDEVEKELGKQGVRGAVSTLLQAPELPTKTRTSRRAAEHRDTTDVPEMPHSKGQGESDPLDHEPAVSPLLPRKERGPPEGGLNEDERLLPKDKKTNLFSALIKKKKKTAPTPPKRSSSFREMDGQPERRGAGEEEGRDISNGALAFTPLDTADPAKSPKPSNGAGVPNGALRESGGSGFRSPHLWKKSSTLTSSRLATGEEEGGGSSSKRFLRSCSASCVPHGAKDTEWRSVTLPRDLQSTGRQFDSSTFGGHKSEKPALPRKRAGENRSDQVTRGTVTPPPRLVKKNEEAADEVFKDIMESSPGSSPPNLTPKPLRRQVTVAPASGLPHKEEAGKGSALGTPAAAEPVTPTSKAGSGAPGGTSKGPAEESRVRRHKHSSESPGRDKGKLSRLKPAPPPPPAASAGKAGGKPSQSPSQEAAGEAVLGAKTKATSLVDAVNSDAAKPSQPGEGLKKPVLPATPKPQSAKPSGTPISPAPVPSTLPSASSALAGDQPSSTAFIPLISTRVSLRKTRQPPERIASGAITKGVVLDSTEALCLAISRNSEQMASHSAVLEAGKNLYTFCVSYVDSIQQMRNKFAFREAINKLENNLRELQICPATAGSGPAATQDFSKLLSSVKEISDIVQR
Ca2+ channel (L, diltiazem site) (benzothiazepines), sequence (P22002 whole entry): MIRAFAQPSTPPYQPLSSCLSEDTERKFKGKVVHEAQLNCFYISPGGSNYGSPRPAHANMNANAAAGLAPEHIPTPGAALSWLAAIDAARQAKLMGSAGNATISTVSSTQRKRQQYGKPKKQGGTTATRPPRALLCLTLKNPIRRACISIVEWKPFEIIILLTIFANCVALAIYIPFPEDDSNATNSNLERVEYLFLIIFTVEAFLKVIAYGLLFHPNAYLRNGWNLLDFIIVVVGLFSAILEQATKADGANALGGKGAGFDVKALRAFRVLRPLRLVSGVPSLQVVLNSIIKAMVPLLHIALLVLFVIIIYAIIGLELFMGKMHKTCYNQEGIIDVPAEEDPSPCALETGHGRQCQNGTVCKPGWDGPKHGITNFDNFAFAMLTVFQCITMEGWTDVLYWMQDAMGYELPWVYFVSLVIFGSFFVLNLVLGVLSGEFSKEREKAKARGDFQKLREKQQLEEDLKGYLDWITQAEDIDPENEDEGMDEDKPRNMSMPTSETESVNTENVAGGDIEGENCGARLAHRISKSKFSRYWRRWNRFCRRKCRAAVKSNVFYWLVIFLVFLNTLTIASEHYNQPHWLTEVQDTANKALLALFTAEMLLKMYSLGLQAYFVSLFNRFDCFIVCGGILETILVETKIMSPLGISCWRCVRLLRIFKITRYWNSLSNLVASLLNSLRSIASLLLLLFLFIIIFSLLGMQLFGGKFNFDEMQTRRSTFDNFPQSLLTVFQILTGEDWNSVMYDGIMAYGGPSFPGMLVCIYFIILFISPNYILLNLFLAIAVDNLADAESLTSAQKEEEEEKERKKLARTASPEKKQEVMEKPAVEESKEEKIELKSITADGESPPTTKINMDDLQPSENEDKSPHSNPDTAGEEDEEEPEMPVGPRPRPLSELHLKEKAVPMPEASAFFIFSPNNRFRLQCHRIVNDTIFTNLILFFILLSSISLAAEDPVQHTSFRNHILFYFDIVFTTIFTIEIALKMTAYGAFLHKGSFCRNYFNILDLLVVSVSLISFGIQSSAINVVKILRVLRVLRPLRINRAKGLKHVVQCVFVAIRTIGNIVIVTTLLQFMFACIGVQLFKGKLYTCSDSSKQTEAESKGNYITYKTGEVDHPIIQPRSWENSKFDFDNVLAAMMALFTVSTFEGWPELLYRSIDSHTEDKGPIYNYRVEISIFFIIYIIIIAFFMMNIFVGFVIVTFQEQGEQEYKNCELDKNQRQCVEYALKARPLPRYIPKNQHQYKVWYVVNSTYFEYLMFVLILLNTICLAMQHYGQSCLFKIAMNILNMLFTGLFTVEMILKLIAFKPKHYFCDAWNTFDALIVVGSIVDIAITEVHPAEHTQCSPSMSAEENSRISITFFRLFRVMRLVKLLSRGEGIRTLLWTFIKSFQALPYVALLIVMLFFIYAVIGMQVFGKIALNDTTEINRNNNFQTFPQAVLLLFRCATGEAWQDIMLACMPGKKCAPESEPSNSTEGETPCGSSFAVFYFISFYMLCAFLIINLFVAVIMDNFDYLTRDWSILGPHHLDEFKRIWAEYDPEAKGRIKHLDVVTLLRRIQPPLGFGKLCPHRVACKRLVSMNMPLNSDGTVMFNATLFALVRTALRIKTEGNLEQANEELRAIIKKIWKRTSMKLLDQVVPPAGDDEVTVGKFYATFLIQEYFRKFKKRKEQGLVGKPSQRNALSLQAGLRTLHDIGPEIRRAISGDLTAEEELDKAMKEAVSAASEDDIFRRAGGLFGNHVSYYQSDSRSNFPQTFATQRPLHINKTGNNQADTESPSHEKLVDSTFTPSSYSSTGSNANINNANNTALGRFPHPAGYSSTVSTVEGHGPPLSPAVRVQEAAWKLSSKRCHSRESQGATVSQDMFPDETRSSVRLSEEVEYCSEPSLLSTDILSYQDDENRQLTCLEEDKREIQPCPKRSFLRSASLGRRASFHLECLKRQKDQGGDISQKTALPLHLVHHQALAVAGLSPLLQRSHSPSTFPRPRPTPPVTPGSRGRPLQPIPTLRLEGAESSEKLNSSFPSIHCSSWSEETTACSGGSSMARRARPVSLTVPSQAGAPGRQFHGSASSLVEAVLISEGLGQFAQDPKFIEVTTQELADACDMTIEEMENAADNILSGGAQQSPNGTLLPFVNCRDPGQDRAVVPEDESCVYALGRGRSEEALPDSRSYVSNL
PDE4D2 (h), sequence (Q08499 303-809 limits assumed): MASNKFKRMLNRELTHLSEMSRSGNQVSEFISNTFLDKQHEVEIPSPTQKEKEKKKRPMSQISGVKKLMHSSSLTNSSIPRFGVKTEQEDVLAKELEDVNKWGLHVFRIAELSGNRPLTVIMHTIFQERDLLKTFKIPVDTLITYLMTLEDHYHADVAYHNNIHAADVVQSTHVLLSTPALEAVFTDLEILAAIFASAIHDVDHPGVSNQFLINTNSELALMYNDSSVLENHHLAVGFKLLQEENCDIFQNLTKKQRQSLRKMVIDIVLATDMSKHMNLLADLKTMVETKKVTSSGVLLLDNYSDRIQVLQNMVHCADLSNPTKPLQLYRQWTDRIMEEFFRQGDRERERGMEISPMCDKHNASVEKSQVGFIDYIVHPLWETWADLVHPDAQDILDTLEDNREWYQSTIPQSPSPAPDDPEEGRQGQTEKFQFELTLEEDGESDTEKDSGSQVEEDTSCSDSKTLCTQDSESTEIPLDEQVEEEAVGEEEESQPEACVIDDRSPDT

## Cn1c(=O)n(CCCO)c(=O)c2c1nc(Oc1cccc(Cl)c1)n2Cc1ccc(Cl)cc1 [HC-070]
Range of ion channels
  inhibition in most cases: ≤ 50%
GABA transaminase; read-out: % Inhibition 1st
  inhibition at 1 µM: -33.1%
GABA transaminase; read-out: % Inhibition Mean
  inhibition at 1 µM: -34.6%
[1]
  concentration at 60 min: 782 ± 250 nM
C57/BL6 mice
  number of open arm entries compared to vehicle: increased open arm entries; also recorded: significantly increased

## Cn1c(=O)n(CCCO)c(=O)c2c1nc(Oc1cccc(OC(F)(F)F)c1)n2Cc1ccc(Cl)cc1 [HC-608]
mTRPC5
  IC50: ~0.62 nM
Kv1.3
  IC50: 1050 ± 340 nM
β2 (h); read-out: % Inhibition 1st
  inhibition at 1 µM: -1.9%
β2 (h); read-out: % Inhibition 2nd
  inhibition at 1 µM: 0.5%
β2 (h); read-out: % Inhibition Mean
  inhibition at 1 µM: -0.7%
CCK2 (CCKB) (h); read-out: % Inhibition 1st
  inhibition at 1 µM: -13.8%
CCK2 (CCKB) (h); read-out: % Inhibition 2nd
  inhibition at 1 µM: -0.7%
CCK2 (CCKB) (h); read-out: % Inhibition Mean
  inhibition at 1 µM: -7.2%
AMPA
  % Inhibition 1st: -2.1%
  % Inhibition 2nd: -9.2%
  % Inhibition Mean: -5.6%
H3 (h); [4]
  inhibition at 1 µM: -0.8%
H3 (h); 1.0E-06 M, read-out: % Inhibition Mean
  inhibition at 1 µM: -13.4%
H3 (h); read-out: % Inhibition 1st
  inhibition at 1 µM: -25.9%
NK1 (h); read-out: % Inhibition 1st
  inhibition at 1 µM: -2.6%
NK1 (h); read-out: % Inhibition 2nd
  inhibition at 1 µM: -13%
NK1 (h); read-out: % Inhibition Mean
  inhibition at 1 µM: -7.8%
PPARγ (h); 1.0E-06 M, read-out: % Inhibition 1st
  inhibition at 1 µM: 6.7%
PPARγ (h); [4]
  inhibition at 1 µM: 16.2%
PPARγ (h); read-out: % Inhibition Mean
  inhibition at 1 µM: 11.5%
[2]
  % Inhibition 1st: 28%
  % Inhibition 2nd: 30.6%
  % Inhibition Mean: 29.3%
TR (TH)
  % Inhibition 1st: 3.2%
  % Inhibition 2nd: -1.6%
  % Inhibition Mean: 0.8%
V2 (h); read-out: % Inhibition 1st
  inhibition at 1 µM: 8.6%
V2 (h); read-out: % Inhibition 2nd
  inhibition at 1 µM: 5.7%
V2 (h); read-out: % Inhibition Mean
  inhibition at 1 µM: 7.1%
[3]
  % Inhibition 1st: -1.9%
  % Inhibition 2nd: 8.8%
  % Inhibition Mean: 3.4%
SKCa channel
  % Inhibition 1st: -2.5%
  % Inhibition 2nd: -4.7%
  % Inhibition Mean: -3.6%
Cl- channel (GABA-gated)
  % Inhibition 1st: 24.7%
  % Inhibition 2nd: 23.2%
  % Inhibition Mean: 23.9%
PDE4D2 (h); read-out: % Inhibition 1st
  inhibition at 1 µM: 1.3%
PDE4D2 (h); read-out: % Inhibition 2nd
  inhibition at 1 µM: -2%
PDE4D2 (h); read-out: % Inhibition Mean
  inhibition at 1 µM: -0.3%
Abl kinase (h); read-out: % Inhibition 1st
  inhibition at 1 µM: 11.4%
Abl kinase (h); read-out: % Inhibition 2nd
  inhibition at 1 µM: 10.2%
Abl kinase (h); read-out: % Inhibition Mean
  inhibition at 1 µM: 10.8%
M4 (h); read-out: % Inhibition 1st
  inhibition at 1 µM: -16.1%
M4 (h); read-out: % Inhibition 2nd
  inhibition at 1 µM: 3.9%
M4 (h); read-out: % Inhibition Mean
  inhibition at 1 µM: -6.1%
